Measurements published in patent US20260022142A1, “MACROCYCLIC IMMUNOMODULATORS” (Bristol-Myers Squibb Company, priority 2022, published 2026).
Bridge positions count the residues as written; N and C are the ends. Square brackets hold non-standard residues; d marks the D form. Peptide text beside a SMILES is read from it. * marks the point of attachment. ξ: configuration not given here. Phe(4-COOH) = N[C@@H](Cc1ccc(C(=O)O)cc1)C(=O)O; Bip = N[C@@H](Cc1ccc(-c2ccccc2)cc1)C(=O)O; Phe(3-Me) = Cc1cccc(C[C@H](N)C(=O)O)c1; Cha = N[C@@H](CC1CCCCC1)C(=O)O; Cit = NC(=O)NCCC[C@H](N)C(=O)O; Thr(3ξ) = CC(O)[C@H](N)C(=O)O; Carboxymethyl = O=C(O)C*; Orn = NCCC[C@H](N)C(=O)O; Aun = NCCCCCCCCCCC(=O)O; Dab = NCC[C@H](N)C(=O)O; AEEA = NCCOCCOCC(=O)O

Molecular target: T1, PD-1/PD-L1 interaction (PE-labeled human PD-L1-Ig binding to Jurkat cell line over-expressing human PD-1) (Homo sapiens, UniProt Q15116)
T1 construct: expressed in transfected cells; host or cells: Jurkat
Experiment: Jurkat-PD-1 Cell Binding High-Content Screening Assay (CBA)
Assay type: cell-based
Settings: Jurkat cell line over-expressing human PD-1; PE-labeled PD-L1-Ig 20 nM final; read-out: Jurkat hPD1-PDL1 IC50
In short: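 Binding of fluorescent PD-L1-Ig (phycoerythrin on Ig tag, 20 nM final, 1 h) measured by high-content imaging of fixed, Hoechst-counterstained Jurkat-hPD-1 cells. Compound added 2 h at 37° C beforehand, in DMEM with 10% fetal calf serum.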

T1 sequence (Q15116 25-288): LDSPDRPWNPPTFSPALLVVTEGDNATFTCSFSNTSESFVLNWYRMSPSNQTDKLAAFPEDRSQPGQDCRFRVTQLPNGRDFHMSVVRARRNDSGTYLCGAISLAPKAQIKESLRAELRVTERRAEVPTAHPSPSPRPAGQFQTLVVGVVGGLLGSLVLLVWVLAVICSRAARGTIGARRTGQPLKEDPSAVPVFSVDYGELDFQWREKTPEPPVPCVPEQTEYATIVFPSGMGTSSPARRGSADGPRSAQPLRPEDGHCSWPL

| IC50 [µM] | SMILES |
| --- | --- |
| 0.026 | Cc1cccc(C[C@@H]2NC(=O)[C@H](CC(=O)O)NC(=O)[C@H](Cc3ccc(OCC(=O)O)cc3)NC(=O)[C@H](CCCNC(=N)N)NC(=O)CSC[C@@H](C(=O)N[C@@H](CCCCN)C(=O)NCCCCCCCCCCC(=O)O)NC(=O)[C@H](C(C)O)NC(=O)[C@H](C(C)C)NC(=O)[C@H](CC3CCCCC3)NC(=O)[C@H](CCN)NC(=O)[C@@H](CC(C)C)NC(=O)[C@H](CCCN)NC(=O)[C@H](CCCNC(N)=O)NC(=O)[C@H](Cc3ccc(-c4ccccc4)cc3)NC(=O)[C@H](C(C)C)NC2=O)c1 (stereo partly drawn) [Compound 3468] ({CH2CO}-RY(Carboxymethyl)D[Phe(3-Me)]V[Bip][Cit][Orn][dL][Dab][Cha]V[Thr(3ξ)]CK[Aun]-OH; thioether N-14) |
| 0.0169 | Cc1cccc(C[C@@H]2NC(=O)[C@H](CC(=O)O)NC(=O)[C@H](Cc3ccc(OCC(=O)O)cc3)NC(=O)[C@H](C(C)O)NC(=O)CSC[C@@H](C(=O)N[C@@H](CCCCN)C(=O)NCCCCCCCCCCC(=O)O)NC(=O)[C@H](CCCCN)NC(=O)[C@H](C(C)C)NC(=O)[C@H](CC3CCCCC3)NC(=O)[C@H](CCN)NC(=O)[C@@H](CC(C)C)NC(=O)[C@H](CCCN)NC(=O)[C@H](CCCNC(N)=O)NC(=O)[C@H](Cc3ccc(-c4ccccc4)cc3)NC(=O)[C@H](C(C)C)NC2=O)c1 (stereo partly drawn) [Compound 3469] ({CH2CO}-[Thr(3ξ)]Y(Carboxymethyl)D[Phe(3-Me)]V[Bip][Cit][Orn][dL][Dab][Cha]VKCK[Aun]-OH; thioether N-14) |
| 0.0248 | Cc1cccc(C[C@@H]2NC(=O)[C@H](CC(=O)O)NC(=O)[C@H](Cc3ccc(OCC(=O)O)cc3)NC(=O)[C@H](CCCNC(=N)N)NC(=O)CSC[C@@H](C(=O)N[C@@H](CCCCN)C(=O)NCCCCCCCCCCC(=O)O)NC(=O)[C@H](CCCCN)NC(=O)[C@H](C(C)C)NC(=O)[C@H](CC3CCCCC3)NC(=O)[C@H](CCN)NC(=O)[C@@H](CC(C)C)NC(=O)[C@H](CCCN)NC(=O)[C@H](CCCNC(N)=O)NC(=O)[C@H](Cc3ccc(-c4ccccc4)cc3)NC(=O)[C@H](C(C)C)NC2=O)c1 [Compound 3470] ({CH2CO}-RY(Carboxymethyl)D[Phe(3-Me)]V[Bip][Cit][Orn][dL][Dab][Cha]VKCK[Aun]-OH; thioether N-14) |
| 0.0212 | Cc1cccc(C[C@@H]2NC(=O)[C@H](CC(=O)O)NC(=O)[C@H](Cc3ccc(OCC(=O)O)cc3)NC(=O)[C@H](C(C)C)NC(=O)CSC[C@@H](C(=O)N[C@@H](CCCCN)C(=O)NCCCCCCCCCCC(=O)O)NC(=O)[C@H](C(C)O)NC(=O)[C@H](C(C)C)NC(=O)[C@H](CC3CCCCC3)NC(=O)[C@H](CCN)NC(=O)[C@@H](CC(C)C)NC(=O)[C@H](CCCN)NC(=O)[C@H](C(C)C)NC(=O)[C@H](Cc3ccc(-c4ccccc4)cc3)NC(=O)[C@H](C(C)C)NC2=O)c1 (stereo partly drawn) [Compound 3471] ({CH2CO}-VY(Carboxymethyl)D[Phe(3-Me)]V[Bip]V[Orn][dL][Dab][Cha]V[Thr(3ξ)]CK[Aun]-OH; thioether N-14) |
| 0.0133 | Cc1cccc(C[C@@H]2NC(=O)[C@H](CC(=O)O)NC(=O)[C@H](Cc3ccc(OCC(=O)O)cc3)NC(=O)[C@H](C(C)O)NC(=O)CSC[C@@H](C(=O)N[C@@H](CCCCN)C(=O)NCCCCCCCCCCC(=O)O)NC(=O)[C@H](CCCCN)NC(=O)[C@H](C(C)C)NC(=O)[C@H](CC3CCCCC3)NC(=O)[C@H](CCN)NC(=O)[C@@H](CC(C)C)NC(=O)[C@H](CCCN)NC(=O)[C@H](C(C)C)NC(=O)[C@H](Cc3ccc(-c4ccccc4)cc3)NC(=O)[C@H](C(C)C)NC2=O)c1 (stereo partly drawn) [Compound 3472] ({CH2CO}-[Thr(3ξ)]Y(Carboxymethyl)D[Phe(3-Me)]V[Bip]V[Orn][dL][Dab][Cha]VKCK[Aun]-OH; thioether N-14) |
| 0.0151 | Cc1cccc(C[C@@H]2NC(=O)[C@H](CC(=O)O)NC(=O)[C@H](Cc3ccc(OCC(=O)O)cc3)NC(=O)[C@H](CCCNC(=N)N)NC(=O)CSC[C@@H](C(=O)N[C@@H](CCCCN)C(=O)NCCCCCCCCCCC(=O)O)NC(=O)[C@H](C(C)O)NC(=O)[C@H](C(C)C)NC(=O)[C@H](CC3CCCCC3)NC(=O)[C@H](CCN)NC(=O)[C@@H](CC(C)C)NC(=O)[C@H](CCCN)NC(=O)[C@H](Cc3ccc(O)cc3)NC(=O)[C@H](Cc3ccc(-c4ccccc4)cc3)NC(=O)[C@H](C(C)C)NC2=O)c1 (stereo partly drawn) [Compound 3473] ({CH2CO}-RY(Carboxymethyl)D[Phe(3-Me)]V[Bip]Y[Orn][dL][Dab][Cha]V[Thr(3ξ)]CK[Aun]-OH; thioether N-14) |
| 0.0118 | Cc1cccc(C[C@@H]2NC(=O)[C@H](CC(=O)O)NC(=O)[C@H](Cc3ccc(OCC(=O)O)cc3)NC(=O)[C@H](CCCNC(=N)N)NC(=O)CSC[C@@H](C(=O)N[C@@H](CCCCN)C(=O)NCCCCCCCCCCC(=O)O)NC(=O)[C@H](CCCN)NC(=O)[C@H](C(C)C)NC(=O)[C@H](CC3CCCCC3)NC(=O)[C@H](CCN)NC(=O)[C@@H](CC(C)C)NC(=O)[C@H](CCCN)NC(=O)[C@H](CCCNC(N)=O)NC(=O)[C@H](Cc3ccc(-c4ccccc4)cc3)NC(=O)[C@H](C(C)C)NC2=O)c1 [Compound 3474] ({CH2CO}-RY(Carboxymethyl)D[Phe(3-Me)]V[Bip][Cit][Orn][dL][Dab][Cha]V[Orn]CK[Aun]-OH; thioether N-14) |
| 0.0257 | Cc1cccc(C[C@@H]2NC(=O)[C@H](CC(=O)O)NC(=O)[C@H](Cc3ccc(OCC(=O)O)cc3)NC(=O)[C@H](CCCNC(=N)N)NC(=O)CSC[C@@H](C(=O)N[C@@H](CCCCN)C(=O)NCCCCCCCCCCC(=O)O)NC(=O)[C@H](C(C)O)NC(=O)[C@H](C(C)C)NC(=O)[C@H](CC3CCCCC3)NC(=O)[C@H](CCN)NC(=O)[C@@H](CC(C)C)NC(=O)[C@H](CCCN)NC(=O)[C@H](C(C)C)NC(=O)[C@H](Cc3ccc(-c4ccccc4)cc3)NC(=O)[C@H](C(C)C)NC2=O)c1 (stereo partly drawn) [Compound 3475] ({CH2CO}-RY(Carboxymethyl)D[Phe(3-Me)]V[Bip]V[Orn][dL][Dab][Cha]V[Thr(3ξ)]CK[Aun]-OH; thioether N-14) |
| 0.0384 | Cc1cccc(C[C@@H]2NC(=O)[C@H](CC(=O)O)NC(=O)[C@H](Cc3ccc(OCC(=O)O)cc3)NC(=O)[C@H](CCCNC(=N)N)NC(=O)CSC[C@@H](C(=O)NCCOCCOCC(=O)NCCCCCCCCCCC(=O)O)NC(=O)[C@H](C(C)O)NC(=O)[C@H](C(C)C)NC(=O)[C@H](CC3CCCCC3)NC(=O)[C@H](CCN)NC(=O)[C@@H](CC(C)C)NC(=O)[C@H](CCCN)NC(=O)[C@H](Cc3ccc(OCC(=O)O)cc3)NC(=O)[C@H](Cc3ccc(-c4ccccc4)cc3)NC(=O)[C@H](Cc3ccc(OCC(=O)O)cc3)NC2=O)c1 (stereo partly drawn) [Compound 3477] ({CH2CO}-RY(Carboxymethyl)D[Phe(3-Me)]Y(Carboxymethyl)[Bip]Y(Carboxymethyl)[Orn][dL][Dab][Cha]V[Thr(3ξ)]C[AEEA][Aun]-OH; thioether N-14) |
| 0.0211 | Cc1cccc(C[C@@H]2NC(=O)[C@H](CC(=O)O)NC(=O)[C@H](Cc3ccc(OCC(=O)O)cc3)NC(=O)[C@H](C(C)O)NC(=O)CSC[C@@H](C(=O)NCCOCCOCC(=O)NCCCCCCCCCCC(=O)O)NC(=O)[C@H](C(C)O)NC(=O)[C@H](C(C)C)NC(=O)[C@H](CC3CCCCC3)NC(=O)[C@H](CCN)NC(=O)[C@@H](CC(C)C)NC(=O)[C@H](CCCN)NC(=O)[C@H](Cc3ccc(OCC(=O)O)cc3)NC(=O)[C@H](Cc3ccc(-c4ccccc4)cc3)NC(=O)[C@H](Cc3ccc(OCC(=O)O)cc3)NC2=O)c1 (stereo partly drawn) [Compound 3478] ({CH2CO}-[Thr(3ξ)]Y(Carboxymethyl)D[Phe(3-Me)]Y(Carboxymethyl)[Bip]Y(Carboxymethyl)[Orn][dL][Dab][Cha]V[Thr(3ξ)]C[AEEA][Aun]-OH; thioether N-14) |
| 0.0596 | Cc1cccc(C[C@@H]2NC(=O)[C@H](CC(=O)O)NC(=O)[C@H](Cc3ccc(OCC(=O)O)cc3)NC(=O)[C@H](CCCNC(=N)N)NC(=O)CSC[C@@H](C(=O)NCCOCCOCC(=O)NCCCCCCCCCCC(=O)O)NC(=O)[C@H](C(C)O)NC(=O)[C@H](C(C)C)NC(=O)[C@H](CC3CCCCC3)NC(=O)[C@H](CCN)NC(=O)[C@@H](CC(C)C)NC(=O)[C@H](CCCN)NC(=O)[C@H](Cc3ccc(OCC(=O)O)cc3)NC(=O)[C@H](Cc3ccc(-c4ccccc4)cc3)NC(=O)[C@H](Cc3ccc(C(=O)O)cc3)NC2=O)c1 (stereo partly drawn) [Compound 3479] ({CH2CO}-RY(Carboxymethyl)D[Phe(3-Me)][Phe(4-COOH)][Bip]Y(Carboxymethyl)[Orn][dL][Dab][Cha]V[Thr(3ξ)]C[AEEA][Aun]-OH; thioether N-14) |
| 0.0175 | Cc1cccc(C[C@@H]2NC(=O)[C@H](CC(=O)O)NC(=O)[C@H](Cc3ccc(OCC(=O)O)cc3)NC(=O)[C@H](CCCNC(=N)N)NC(=O)CSC[C@@H](C(=O)NCCOCCOCC(=O)NCCCCCCCCCCC(=O)O)NC(=O)[C@H](C(C)O)NC(=O)[C@H](C(C)C)NC(=O)[C@H](CC3CCCCC3)NC(=O)[C@H](CCN)NC(=O)[C@@H](CC(C)C)NC(=O)[C@H](CCCNC(N)=O)NC(=O)[C@H](Cc3ccc(OCC(=O)O)cc3)NC(=O)[C@H](Cc3ccc(-c4ccccc4)cc3)NC(=O)[C@H](C(C)C)NC2=O)c1 (stereo partly drawn) [Compound 3480] ({CH2CO}-RY(Carboxymethyl)D[Phe(3-Me)]V[Bip]Y(Carboxymethyl)[Cit][dL][Dab][Cha]V[Thr(3ξ)]C[AEEA][Aun]-OH; thioether N-14) |
| 0.0716 | Cc1cccc(C[C@@H]2NC(=O)[C@H](CC(=O)O)NC(=O)[C@H](Cc3ccc(OCC(=O)O)cc3)NC(=O)[C@H](CCCNC(=N)N)NC(=O)CSC[C@@H](C(=O)NCCOCCOCC(=O)NCCCCCCCCCCC(=O)O)NC(=O)[C@H](C(C)O)NC(=O)[C@H](C(C)C)NC(=O)[C@H](CC3CCCCC3)NC(=O)[C@H](CCN)NC(=O)[C@@H](CC(C)C)NC(=O)[C@H](CCCNC(N)=O)NC(=O)[C@H](Cc3ccc(OCC(=O)O)cc3)NC(=O)[C@H](Cc3ccc(-c4ccccc4)cc3)NC(=O)[C@H](Cc3ccc(OCC(=O)O)cc3)NC2=O)c1 (stereo partly drawn) [Compound 3481] ({CH2CO}-RY(Carboxymethyl)D[Phe(3-Me)]Y(Carboxymethyl)[Bip]Y(Carboxymethyl)[Cit][dL][Dab][Cha]V[Thr(3ξ)]C[AEEA][Aun]-OH; thioether N-14) |
